Results reported in article PMC3815326 (Microbial biotechnology, 2012).
Entries after “also recorded” stand apart in the source; their conditions may differ. Where two headings read alike, the source gives them in different places.

Legend:
TodS = settings: agonist / antagonist classification, ref Busch et al., 2007, cited from earlier work
TmoS [1] = target: T1, TmoS (Ectopseudomonas mendocina, UniProt Q8KIY1); assay type: biochemical, Pseudomonas mendocina KR1
TmoS [2] = target: T1, TmoS; test: Isothermal titration calorimetry of purified TmoS with effector molecules; assay type: binding, Pseudomonas mendocina KR1; settings: for TΔS / affinity / binding to TmoS, in words / ΔH: TmoS
TmoS [3] = test: as above; assay type: binding, Pseudomonas mendocina KR1; settings: TodS values from Busch et al., 2007
T4MO = T4MO substrate; ref Mitchell et al., 2002; cited from earlier work
CitA = settings: read-out: KD for CitA; determined by ITC; ref Kaspar et al., 1999; cited from earlier work
[4] = 100 µM effector (saturating), 30 min, 10 µM TmoS, 4°C
[5] = 100 µM effector, time course (Fig. 4B and C)
[6] = ITC, typically 10 µM TmoS titrated with 500 µM effector, pH 7.5

T1 sequence (Q8KIY1 whole entry): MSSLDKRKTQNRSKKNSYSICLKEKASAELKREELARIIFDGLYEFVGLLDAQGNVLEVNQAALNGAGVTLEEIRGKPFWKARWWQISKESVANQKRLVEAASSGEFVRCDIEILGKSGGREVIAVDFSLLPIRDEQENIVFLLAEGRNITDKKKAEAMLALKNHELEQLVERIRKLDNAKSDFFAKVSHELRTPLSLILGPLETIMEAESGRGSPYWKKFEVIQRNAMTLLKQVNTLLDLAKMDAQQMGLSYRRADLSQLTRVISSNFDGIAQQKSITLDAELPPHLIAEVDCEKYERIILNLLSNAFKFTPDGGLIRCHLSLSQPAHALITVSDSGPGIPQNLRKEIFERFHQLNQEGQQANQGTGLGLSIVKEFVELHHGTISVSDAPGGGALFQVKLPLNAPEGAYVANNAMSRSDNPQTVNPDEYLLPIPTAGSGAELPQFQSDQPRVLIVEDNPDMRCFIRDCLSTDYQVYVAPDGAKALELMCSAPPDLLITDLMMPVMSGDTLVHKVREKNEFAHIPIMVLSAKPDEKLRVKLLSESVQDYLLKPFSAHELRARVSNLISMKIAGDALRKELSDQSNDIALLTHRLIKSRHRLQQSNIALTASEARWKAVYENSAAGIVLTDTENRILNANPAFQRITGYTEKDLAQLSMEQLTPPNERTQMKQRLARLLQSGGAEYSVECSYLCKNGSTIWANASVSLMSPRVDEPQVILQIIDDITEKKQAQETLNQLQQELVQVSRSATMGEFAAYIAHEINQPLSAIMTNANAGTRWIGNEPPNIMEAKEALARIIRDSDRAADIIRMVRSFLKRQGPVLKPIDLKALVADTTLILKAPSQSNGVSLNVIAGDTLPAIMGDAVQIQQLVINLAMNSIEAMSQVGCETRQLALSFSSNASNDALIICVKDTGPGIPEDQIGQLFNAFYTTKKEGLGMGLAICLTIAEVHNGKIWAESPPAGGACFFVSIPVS

| Molecule | Effect on TodS (TodS) | Kd (TmoS [2]) [nM] | TΔS (TmoS [2]; ITC) | affinity / binding to TmoS, in words (TmoS [2]; ITC) | ΔH (TmoS [2]; ITC) | affinity for TmoS relative to TodS (TmoS [3]) | further results |
| --- | --- | --- | --- | --- | --- | --- | --- |
| Cc1ccc(C)c(C)c1 [1,2,4 Trimethylbenzene] | Antagonist | 3460 ± 500 | 5.6 ± 0.2 kcal/mol | tight binding | -1.5 ± 0.2 kcal/mol | – | TmoS phosphorylation state in presence of effector versus control (TmoS [1]): very similar to the control; also recorded: failed to increase |
| c1ccccc1 [Benzene] | Agonist | 170 | 3.6 ± 0.1 kcal/mol | nanomolar range | -5.3 ± 0.1 kcal/mol | around 4.5 times | TmoS phosphorylation state in presence of effector versus control (TmoS [1]): increased phosphorylation; stimulation of TmoS autokinase activity in kinetics experiment (TmoS [1]): significantly inferior |
| Clc1ccccc1 [Chlorobenzene] | Agonist | 1250 ± 70 | – | – | -6.9 ± 0.3 kcal/mol | comparable | TmoS phosphorylation state in presence of effector versus control (TmoS [1]): increased phosphorylation |
| CCc1ccccc1 [Ethylbenzene] | Agonist | – | 4.1 ± 0.1 kcal/mol | – | -3.5 ± 0.1 kcal/mol | tighter | TmoS phosphorylation state in presence of effector versus control (TmoS [1]; [4]): increased phosphorylation; Kd (TmoS [2]; KD, ITC, typically 10 µM TmoS titrated with 500 µM effector, pH 7.5): 1560 ± 100 nM |
| O=[N+]([O-])c1ccccc1 [Nitrobenzene] | Agonist | 230 ± 30 | 4.5 ± 0.1 kcal/mol | nanomolar range | -4.1 ± 0.1 kcal/mol | 29 times | – |
| C=Cc1ccccc1 [Styrene] | Agonist | 810 ± 100 | 3.3 ± 0.3 kcal/mol | nanomolar range | -4.8 ± 0.3 kcal/mol | comparable | – |
| Cc1ccccc1 [Toluene] | – | – | 2.4 ± 0.1 kcal/mol | – | -6.5 ± 0.1 kcal/mol | – | TmoS phosphorylation state in presence of effector versus control (TmoS [1]; [4]): most pronounced increase; TmoS phosphorylation state in presence of effector versus control (TmoS [1]; 100 µM effector (saturating), 30 min, 10 µM TmoS, 4°C, listed as toluene): increased phosphorylation; time of maximal TmoS phosphorylation (TmoS [1]; 100 µM effector, kinetics of autophosphorylation): 40 min; stimulation of TmoS autokinase activity in kinetics experiment (TmoS [1]; [5]): most pronounced increase; Km (T4MO): 4 µM |
| O=C(O)CC(O)(CC(=O)O)C(=O)O [citrate] | – | – | – | – | – | – | Kd (CitA): 5500 nM |
| C1CCCCC1 [cyclohexane] | No binding | – | No binding | failed to bind | No binding | – | KA (TmoS [2]; [6]): No binding; KD (TmoS [2]; [6]): No binding |
| Cc1cccc(Cl)c1 [m‐Chlorotoluene] | Agonist | 2070 ± 600 | 1.5 ± 0.8 kcal/mol | – | -5.9 ± 0.9 kcal/mol | – | – |
| Cc1cccc(C)c1 [m‐xylene] | Agonist | 710 ± 90 | 1.1 ± 0.6 kcal/mol | – | – | – | – |
| Cc1ccccc1Cl [o‐Chlorotoluene] | Antagonist | – | 2.4 ± 0.9 kcal/mol | – | -5.1 ± 0.9 kcal/mol | – | Effect on TodS (TodS; listed as o‐chlorotoluene): antagonists; TmoS phosphorylation state in presence of effector versus control (TmoS [1]; [4]): very similar to the control; also recorded: failed to increase; also recorded: did not trigger an increase; Kd (TmoS [2]; [6]): 2140 ± 400 nM |
| Cc1ccccc1C [o‐xylene] | Antagonist | 290 ± 10 | – | – | -8.9 ± 0.1 kcal/mol | – | Effect on TodS (TodS; listed as o‐ xylene): antagonists; TmoS phosphorylation state in presence of effector versus control (TmoS [1]; [4]): very similar to the control; also recorded: failed to increase; also recorded: did not trigger an increase |
| Cc1ccc(Cl)cc1 [p‐Chlorotoluene] | Agonist | – | 5.3 ± 0.1 kcal/mol | nanomolar range | -2.7 ± 0.1 kcal/mol | – | – |
| Cc1ccc(C)cc1 [p‐xylene] | Agonist | 460 ± 50 | 4.9 ± 0.29 kcal/mol | – | -3.4 ± 0.3 kcal/mol | – | – |
| chlorotoluene | – | – | – | – | – | – | stimulation of TmoS autokinase activity in kinetics experiment (TmoS [1]; [5]): significantly inferior |
